Each structure is given as a SMILES string. Several values for one entry are separate records, joined by “and”; a condition that tells them apart may be missing. Equal values may be shown once. Activity calls are given as the source filed them.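 Rule for the calls: active = compounds giving half or more protection of infected cells from virus-caused growth loss, again on retest; inactive = the rest.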 Where a SMILES comes first, the peptide text is derived from it. The star is where a group is joined. ONp = O=[N+]([O-])c1ccc(O*)cc1; Cbz = O=C(OCc1ccccc1)*; OBn = c1ccc(CO*)cc1

The test relates to CEM cells HIV-1 protection, formazan growth assay. Kind of test: NCI AIDS Antiviral Assay. The settings on record: for IC50: measured here: growth of uninfected CEM cells. The essentials:
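Human CEM cells, uninfected and HIV-1-infected, exposed to five drug concentrations; growth measured by soluble formazan assay and scored as percent protection from infection, with protecting compounds retested.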

On to `CC(C)(C)OC(=O)Cn1ncn(NC(=O)Cc2ccccc2)c1=S`, for which the EC50 was over 200 µM and the IC50 is over 200 µM.

With `O=C(Nc1ccccc1)c1cc(C(=O)Nc2ccccc2)[nH]n1`, the outcome was inactive.

In the case of `O=C1C=CC(=O)N1Nc1ccc([N+](=O)[O-])cc1[N+](=O)[O-]`, the EC50 is over 200 µM and the IC50 was determined as 110 µM.

For the molecule `Cc1cn(C2CC(COCc3ccccc3)N(CCO)O2)c(=O)[nH]c1=O` (configuration not stated), the EC50 was over 200 µM and the IC50 is over 200 µM.

Turning to `CCCC(=O)Nc1ccc2c(ccn2COC)c1`, the EC50 was over 200 µM and the IC50 is over 200 µM.

Consider `O=C[C@@H](CO)O[C@H](C=O)c1c[nH]c(=O)[nH]c1=O`, for which the EC50 was over 1020 µM and the IC50 turned out to be 107 µM.

For the molecule `COC(=O)C(NC(=O)c1ccccc1)C(c1c(O)cc(O)cc1O)P(=O)(OC)OC` (configuration not stated), the EC50 is over 16.2 µM and the IC50 was over 16.2 µM.

For the molecule `O=[N+]([O-])c1ccc(CN(CCCl)OCCCl)cc1`, the EC50 was over 200 µM and the half-maximal inhibitory concentration (IC50) was 37.2 µM.

Turning to `c1ccc2[nH]c3[nH]c4[nH]c5ccccc5[nH]c4[nH]c3[nH]c2c1`, the EC50 was over 50.1 µM and the IC50 was over 50.1 µM.

As for `CC(C)NC(=O)/C=C/C=C/c1ccc(Cl)cc1`, the EC50 was over 28.8 µM and the half-inhibitory concentration (IC50) is over 28.8 µM.

As to `Cc1cc(C2(c3cc(C)c(O)c(CN(CC(=O)O)CC(=O)O)c3)OS(=O)(=O)c3ccccc32)cc(CN(CC(=O)O)CC(=O)O)c1O`, the EC50 was 93.3 µM and the IC50 was over 100 µM.

Consider `CCOP(=O)(O)C(Nc1ccc(N=Nc2ccccc2)cc1)c1ccc(C(Nc2ccc(N=Nc3ccccc3)cc2)P(=O)(O)OCC)cc1` (configuration not stated), for which the EC50 was over 81.3 µM and the IC50 was found to be 30.2 µM.

Regarding `O=CC[C@@]12CC(=O)OC(C1)[C@@H](I)CC21OCCO1`, the EC50 is over 200 µM and the IC50 is over 200 µM.

With `Nc1cc2c3c(cccc3c1)C(=O)N(CCN1CCCC1)C2=O`, the EC50 is over 200 µM and the IC50 stood at 1.07 µM.

Consider `Cc1nc2ccccc2c(=O)n1-c1ccccc1I`, for which the EC50 is over 100 µM and the half-maximal inhibitory concentration (IC50) was over 100 µM.

`N#C/C(=C\c1ccc(Cl)cc1)c1ccccc1`: the EC50 is over 200 µM and the IC50 turned out to be 32.4 µM.

For the molecule `CCCCN(CCCC)CC(=O)Nc1ccc(C(=O)OCC(C)C)cc1`, the EC50 was over 200 µM and the concentration for half-maximal inhibition (IC50) is over 200 µM.

With `Cc1cc(=O)oc2c(O)c(O)ccc12`, the EC50 was over 263 µM and the IC50 stood at 141 µM.

Consider `COC(=O)C12CCC(C)(C)CC1C1=CCC3C4(C)CC(O)C(O)C(C)(C(=O)OC)C4CCC3(C)C1(CO)CC2` (configuration not stated), for which the outcome was inactive.

As to `COCC(=O)OC1CCn2c1nc1c2C(=O)C(C)=C(NC(C)=O)C1=O` (configuration not stated), the EC50 was over 200 µM and the IC50 stood at 1.26 µM.

With `Cn1cc(NC(=O)c2cc(NC(=O)CCCCCCCCCCC(=O)Nc3cc(C(=O)Nc4cc(C(=O)NCCC(=N)N)n(C)c4)n(C)c3)cn2C)cc1C(=O)NCCC(=N)N`, the EC50 was 4.07 µM and the IC50 was found to be 7.76 µM.

In the case of `O=C1CCC2(c3ccccc3)Nc3ccncc3N12` (configuration not stated), the EC50 was over 1000 µM and the half-maximal inhibitory concentration (IC50) came out at 490 µM.

In the case of `N#CC(C#N)=c1ccc(=C2NCC3CCCN23)cc1` (configuration not stated), the outcome was inactive.

As to `Nc1nc(N)c(N=O)c(Nc2ccc(O)cc2)n1`, the EC50 is over 200 µM and the IC50 came out at 170 µM.

`O=C1C2=C(c3ccccc31)C(c1ccccc1Cl)NC(=S)N2` (configuration not stated): the EC50 is over 79.4 µM and the IC50 is 33.1 µM.

For the molecule `CCCCOC(=O)C(=O)/C(=C\n1c(=S)[nH]c2ccccc21)C(=O)C=C(C)C`, the EC50 is over 200 µM.

`Cc1cc2c(c(C(=O)NCCC(=O)O)c1)Oc1c(cc(C)cc1C(=O)NCCC(=O)O)S2`: the EC50 is over 200 µM and the IC50 was over 200 µM.

For the molecule `Oc1ccc([I+]c2ccccc2)cc1O`, the EC50 was over 107 µM and the IC50 amounted to 30.2 µM.

As for `O=C1/C(=C/c2ccccc2)CSC/C1=C\c1ccccc1`, the EC50 was over 200 µM and the IC50 amounted to 2.4 µM.

In the case of `CCCCCCCCCCCCCCCCSS(=O)(=O)CCCCCCCC`, the EC50 is over 74.1 µM and the IC50 is over 74.1 µM.

As to `C/C(CCc1ccccc1)=N\Nc1ccc([N+](=O)[O-])cc1[N+](=O)[O-]`, the EC50 is over 21.9 µM and the IC50 was over 21.9 µM.

On to `Cc1ccc(OC2CC(n3cnc4c(=O)[nH]c(Br)nc43)OC2Oc2ccc(C)cc2)cc1` (configuration not stated), for which the EC50 is over 200 µM and the IC50 is 25.1 µM.

With `O=C(O)CCCCCCCCCOc1ccccc1`, the EC50 was over 200 µM and the IC50 stood at 40.7 µM.

Take `COC(=O)[C@H]1COC(=S)N1C(=O)[C@@H](C)[C@H](O)C(C)C`: the EC50 is over 631 µM and the IC50 is over 631 µM.

Regarding `CCCNCC(=O)O[C@]1(CC)C(=O)OCc2c1cc1n(c2=O)Cc2cc3ccccc3nc2-1`, the EC50 was over 10 µM and the IC50 is 0.0525 µM.

Consider `CC1CC(N)=C(C#N)C1(C#N)C#N` (configuration not stated), for which the EC50 was over 200 µM and the IC50 is 138 µM.

In the case of `COC1/C=C/OC2(C)Oc3c(C)c(O)c4c(O)c(c(C=NN5C(C)CC(Cc6ccccc6)CC5C)c(O)c4c3C2=O)NC(=O)/C(C)=C/C=C/C(C)C(O)C(C)C(O)C(C)C(OC(C)=O)C1C` (configuration not stated), the EC50 is over 200 µM and the IC50 is 8.71 µM.

Regarding `CC(C)Oc1c(C2(c3ccccc3O)SCCCS2)c(=O)c1=O`, the EC50 is over 200 µM and the IC50 amounted to 112 µM.

In the case of `O=C1c2ccccc2-c2nc3ccccc3nc21`, the EC50 is over 6.17 µM and the IC50 is over 6.17 µM.

For `CCn1cnnc1-c1nsc2ccccc12`, the EC50 is over 81.3 µM and the IC50 was 75.9 µM.

As to `NC(=S)N/N=C1\CCCCc2ccccc21`, the outcome was inactive.

As for `COC(=O)c1cc(/C=C2\Cc3cc4c(cc3C2=O)CCC4)cc2c1CCC2`, the EC50 was over 200 µM and the IC50 was over 200 µM.

Regarding `COc1ccc(N=C2SCC(=O)N2NC(=O)CN2C(=O)c3ccccc3C2=O)cc1`, the EC50 was over 20.4 µM and the IC50 was determined as 17.4 µM.

With `C[C@H](OCc1ccccc1)C(=O)N1CCS(=O)(=O)N2CCC[C@H]2C1=O`, the EC50 is over 676 µM and the IC50 was over 676 µM.

On to `O=c1c(-c2ccccc2)c2n(c3ccccc13)CCN2`, for which the EC50 is over 200 µM and the IC50 is over 200 µM.

As for `COc1cc2c(cc1O)CC1c3c(cc(O)c(OC)c3-2)CCN1C` (configuration not stated), the EC50 is over 200 µM and the IC50 amounted to 69.2 µM.

In the case of `Cc1cc(S(=O)(=O)/N=C(/NN)Nc2ccc(Cl)cc2)c(S)cc1Cl`, the EC50 is over 200 µM and the IC50 stood at 10 µM.

`CC(CCNC(=O)c1ccccc1)(CCNC(=O)c1ccccc1)[N+](=O)[O-]`: the EC50 was over 200 µM and the IC50 was over 200 µM.

Regarding `O=C(CNC(=O)C(CCC(=O)OCc1ccccc1)NC(=O)OCc1ccccc1)NCC(=O)NC(CO)C(=O)NCC(=O)Oc1ccc([N+](=O)[O-])cc1` (configuration not stated) (Cbz-E(OBn)GGSG-ONp; configuration not given here), the EC50 was over 91.2 µM and the IC50 is over 91.2 µM.

Consider `CNc1nc(SC)nc2c1c(N)nn2C`, for which the EC50 is over 200 µM and the concentration for half-maximal inhibition (IC50) was over 200 µM.

Regarding `Nc1nnnc2nc[nH]c12`, the EC50 is over 20 µM and the IC50 is 0.537 µM.

For the molecule `CCOC(=O)N1CCc2cc(OC)c(OC)c3c2c1cc1cc(OC)c(OC)cc13`, the outcome was inactive.

In the case of `CC(C)c1oc(=O)cc2c1C(O)C1OC(=O)C3(C)C(O)C4OC4C2(C)C13` (configuration not stated), the EC50 was over 36.3 µM and the concentration for half-maximal inhibition (IC50) worked out at 0.17 µM.

For `COC1(C)C[C@@]23CC[C@@H]4C(C)(C(=O)O)CCCC4(C)[C@@H]2CC[C@@H]1C3` (some centres not stated), the EC50 is over 200 µM and the IC50 stood at 120 µM.

For the molecule `COC(=O)CNC(=O)C(CSC(=O)OCC1c2ccccc2-c2ccccc21)NC(=O)CCC(NC(=O)OCC1c2ccccc2-c2ccccc21)C(=O)OC` (configuration not stated), the EC50 was over 200 µM and the IC50 was 29.5 µM.

Turning to `C=CCCCCC1CCC2CCC(CCCC)N12` (configuration not stated), the EC50 was over 525 µM and the IC50 is over 525 µM.

Take `O=C(O)c1cc2c(cc1CC(Cc1ccc3c(c1)CCCC3)C(=O)O)CCCC2` (configuration not stated): the EC50 is over 200 µM and the IC50 was 51.3 µM.

Consider `Cc1cnc2c(c1)C(=O)N(c1ccc(Oc3ccccc3)cc1)S2(=O)=O`, for which the EC50 was over 200 µM and the IC50 is over 200 µM.

With `CSC1=NN(C(C)=O)C(C(OC(C)=O)C(OC(C)=O)C(OC(C)=O)C(COC(C)=O)OC(C)=O)S1` (configuration not stated), the outcome was inactive.

Regarding `COc1cccc2c1C(=O)c1c(O)c3c(c(O)c1C2=O)C[C@@](O)(C(=O)CO)C[C@@H]3OC1CC(N)C(O)C(C)O1` (some centres not stated), the EC50 is over 2.51 µM.

For the molecule `Cc1cccc(N=Nc2c(S(=O)(=O)O)cc3cc(NC(=O)Nc4ccc5c(O)c(N=Nc6ccc7cc(S(=O)(=O)O)ccc7c6)c(S(=O)(=O)O)cc5c4)ccc3c2O)c1`, the EC50 was found to be 15.8 µM and the IC50 was 75.9 µM.

In the case of `CCCCN=C(N)N=C(N)N`, the EC50 was over 200 µM and the IC50 is 93.3 µM.

Regarding `COC(=O)[C@]1(C)CCC[C@]2(C)c3cc(C(C)=O)c(C(C)C)cc3CC[C@@H]12`, the EC50 is over 200 µM and the IC50 is 25.7 µM.

`CC1(O)CC2C(CC1SCc1ccccc1)C2(C)C` (configuration not stated): the EC50 was over 200 µM; the IC50 is 34.7 µM and 20 µM.

In the case of `O=C1C(Cl)=C(O)C2(Cl)C(Cl)=C(Cl)C12Cl` (configuration not stated), the result was inactive.

In the case of `O=C1C(c2ccccc2)=[N+]([O-])c2ccc(Cl)cc21`, the result was inactive.

Consider `Cc1cc(=O)[nH]c(CNC(=O)c2cccc3ccccc23)n1`, for which the EC50 was over 851 µM and the IC50 is over 851 µM.

Consider `CS(=O)(=O)N1CC(CI)c2ccc(O)cc21` (configuration not stated), for which the EC50 is over 200 µM and the IC50 was 2.4 µM.

In the case of `NNC1=Nc2ccc(Cl)cc2C(=S)N2CSCC12` (configuration not stated), the EC50 is over 200 µM and the IC50 was over 200 µM.

Take `CC(=O)OC1(c2ccccc2)OC(=O)C(C)(C)c2ccccc21` (configuration not stated): the EC50 was over 158 µM and the 50% inhibitory concentration (IC50) is over 158 µM.

Consider `CCOC(=O)CC(NCCSS(=O)(=O)O)C(=O)OCC` (configuration not stated), for which the EC50 is over 200 µM and the IC50 is over 200 µM.
